Assay results as given in patent EP0565593B1, “REDUCING PESTICIDAL INTERACTIONS IN CROPS” (priority 1990, dated 1992).
Read-outs that look alike come from different tables or passages of the source.

What was measured:
Shattercane (SHCA) = type: in vivo; details: […]
Velvetleaf (VELE) [1] = type: in vivo, Abutilon theophrasti; details: […]
Giant foxtail (GIFT) = experiment: whole plant or invertebrate; type: in vivo
Velvetleaf (VELE) [2] = experiment: whole plant or invertebrate; type: in vivo, Abutilon theophrasti
Corn [3] = details: […]
Corn [4] = tested on: Corn
[5] = observed 8 days later (Table 32)
[6] = observed 8 days later (Table 33)
[7] = […], PPI, 14 days after PPI (Table 34)
[8] = antidote number given but rate '-' (Table 33)
[9] = […], antidote number given but rate '-', 14 days after PPI (Table 34)
[10] = observed 7 days after POE (Table 35)
[11] = observed 7 days after POE (Table 36)

Row | Compound | % Inhibition SHCA (Shattercane (SHCA); [5]) [%] | % Inhibition SHCA (Shattercane (SHCA); [6]) [%] | % Inhibition VELE (Velvetleaf (VELE) [1]; [5]) [%] | % Inhibition VELE (Velvetleaf (VELE) [1]; [6]) [%] | % Inhibition GIFT (Giant foxtail (GIFT); [7]) [%] | % Inhibition VELE (Velvetleaf (VELE) [2]; [7]) [%] | % Inhibition Corn (Corn [3]; [5]) [%] | % Inhibition Corn (Corn [3]; [6]) [%] | % Inhibition Corn (Corn [4]; [7]) [%] | other results
1 | CNC(=O)COC(c1ccccc1)c1ccccc1 [compound 42] | 75 | 30 | 90 | 70 | 70 | 90 | 70 | 60 | 75 | 
2 | CCOC(=O)CNC(c1ccc(OC)cc1)c1ccc(OC)cc1 [compound 43] | 65 | 35 | 85 | 75 | 70 | 90 | 55 | 65 | 80 | 
3 | CCOC(=O)CNC(c1ccc(Cl)cc1)c1ccc(Cl)cc1 [compound 44] | 80 | 30 | 85 | 65 | 65 | 95 | 65 | 60 | 75 | 
4 | CC(C)(C)OC(=O)COC1c2ccccc2CCc2ccccc21 [compound 45] | 85 | 25 | 80 | 70 | 75 | 90 | 65 | 65 | 70 | 
5 | NC(=S)COC(c1ccccc1)c1ccccc1 [compound 46] | 70 | 25 | 90 | 70 | 60 | 85 | 50 | 55 | 65 | 
6 | CCCOC(=O)COC(c1ccccc1)c1ccccc1 [compound 47] | 75 | 30 | 85 | 75 | 65 | 85 | 25 | 50 | 60 | 
7 | O=C(COC(c1ccccc1)c1ccccc1)OCC(F)(F)F [compound 48] | 80 | 25 | 90 | 70 | 60 | 95 | 20 | 45 | 30 | 
8 | O=C(O)COC(c1ccccc1)c1cccc(C(F)(F)F)c1 (centres unmarked) [compound 49] | 70 | 30 | 90 | 80 | 65 | 100 | 45 | 70 | 55 | 
9 | O=C(COC(c1ccccc1)c1ccccc1)Oc1ccccc1 [compound 50] | 75 | 25 | 80 | 70 | 70 | 95 | 20 | 45 | 60 | 
10 | N#CCCOC(=O)COC(c1ccccc1)c1ccccc1 [compound 52] | 70 | 25 | 85 | 75 | 65 | 85 | 20 | 45 | 40 | 
11 | O=C(COC(c1ccccc1)c1cccc(C(F)(F)F)c1)OCC(F)(F)F (centres unmarked) [compound 53] | 80 | 25 | 85 | 70 | 70 | 100 | 50 | 50 | 60 | 
12 | C#CCOC(=O)COC(c1ccccc1)c1ccccc1 [compound 54] | 70 | 20 | 90 | 65 | 60 | 90 | 30 | 55 | 55 | 
13 | O=C(COC(c1ccccc1)c1ccccc1)OCc1ccoc1 [compound 55] | 75 | 25 | 85 | 70 | 65 | 90 | 25 | 50 | 45 | 
14 | Cc1cccc(C)c1C(OCC(=O)O)c1c(C)cccc1C [compound 56] | 75 | 30 | 85 | 75 | 75 | 85 | 60 | 60 | 65 | 
15 | O=C(COC(c1ccccc1)c1ccccc1)Oc1cccc([N+](=O)[O-])c1 [compound 57] | 80 | 35 | 85 |  | 70 | 80 | 15 | 65 | 65 | 
16 | CCOC(=O)COC(c1c(C)cccc1C)c1c(C)cccc1C [compound 58] | 70 | 30 | 85 | 70 | 60 | 90 | 55 | 45 | 30 | 
17 | CC(C)(C#N)OC(=O)COC(c1ccccc1)c1ccccc1 [compound 59] | 80 |  | 85 |  |  |  | 15 |  |  | % Inhibition SHCA (Shattercane (SHCA); [8]): 0%; % Inhibition VELE (Velvetleaf (VELE) [1]; [8]): 0%; % Inhibition GIFT (Giant foxtail (GIFT); [9]): 30%; % Inhibition VELE (Velvetleaf (VELE) [2]; [9]): 20%; % Inhibition Corn (Corn [3]; [8]): 0%; % Inhibition Corn (Corn [4]; [9]): 0%
18 | CCOC(=O)c1sc(Cl)nc1C(F)(F)F [compound 60] |  |  |  |  |  |  |  |  |  | % Inhibition SHCA (Shattercane (SHCA); [10]): 60%; % Inhibition SHCA (Shattercane (SHCA); [11]): 35%; % Inhibition VELE (Velvetleaf (VELE) [1]; [10]): 80%; % Inhibition VELE (Velvetleaf (VELE) [1]; [11]): 65%; % Inhibition GIFT (Giant foxtail (GIFT); in vivo): 75%; % Inhibition VELE (Velvetleaf (VELE) [2]; in vivo): 90%; % Inhibition Corn (Corn [3]; [10]): 40%; % Inhibition Corn (Corn [3]; [11]): 60%; % Inhibition Corn (Corn [4]; in vivo): 60%
19 | CCCCOC(=O)c1sc(Cl)nc1C(F)(F)F [compound 61] |  |  |  |  |  |  |  |  |  | % Inhibition SHCA (Shattercane (SHCA); [10]): 65%; % Inhibition SHCA (Shattercane (SHCA); [11]): 35%; % Inhibition VELE (Velvetleaf (VELE) [1]; [10]): 75%; % Inhibition VELE (Velvetleaf (VELE) [1]; [11]): 65%; % Inhibition GIFT (Giant foxtail (GIFT); in vivo): 70%; % Inhibition VELE (Velvetleaf (VELE) [2]; in vivo): 90%; % Inhibition Corn (Corn [3]; [10]): 35%; % Inhibition Corn (Corn [3]; [11]): 55%; % Inhibition Corn (Corn [4]; in vivo): 60%
20 | CCCCCCOC(=O)c1sc(Cl)nc1C(F)(F)F [compound 62] |  |  |  |  |  |  |  |  |  | % Inhibition SHCA (Shattercane (SHCA); [10]): 65%; % Inhibition SHCA (Shattercane (SHCA); [11]): 30%; % Inhibition VELE (Velvetleaf (VELE) [1]; [10]): 80%; % Inhibition VELE (Velvetleaf (VELE) [1]; [11]): 60%; % Inhibition GIFT (Giant foxtail (GIFT); in vivo): 75%; % Inhibition VELE (Velvetleaf (VELE) [2]; in vivo): 95%; % Inhibition Corn (Corn [3]; [10]): 30%; % Inhibition Corn (Corn [3]; [11]): 55%; % Inhibition Corn (Corn [4]; in vivo): 65%
